Experimental data from patent US12172995B2, “Substituted indole and indazole compounds” (BRISTOL-MYERS SQUIBB COMPANY, priority 2018, dated 2024).
pIC50: −log10 of the molar value.

Assays:
Format in all cases: cell-based
human TLR7 = target: T1, human TLR7 (Homo sapiens, UniProt Q9NYK1); assay: TLR7 inhibition reporter assay (HEK-Blue SEAP); conditions: HEK-Blue cells overexpressing human TLR7, stimulated with gardiquimod 7.5 μM, 22 hour incubation
T1 construct: host or cells: HEK-Blue cells
T1 sequence (Q9NYK1 27-1049): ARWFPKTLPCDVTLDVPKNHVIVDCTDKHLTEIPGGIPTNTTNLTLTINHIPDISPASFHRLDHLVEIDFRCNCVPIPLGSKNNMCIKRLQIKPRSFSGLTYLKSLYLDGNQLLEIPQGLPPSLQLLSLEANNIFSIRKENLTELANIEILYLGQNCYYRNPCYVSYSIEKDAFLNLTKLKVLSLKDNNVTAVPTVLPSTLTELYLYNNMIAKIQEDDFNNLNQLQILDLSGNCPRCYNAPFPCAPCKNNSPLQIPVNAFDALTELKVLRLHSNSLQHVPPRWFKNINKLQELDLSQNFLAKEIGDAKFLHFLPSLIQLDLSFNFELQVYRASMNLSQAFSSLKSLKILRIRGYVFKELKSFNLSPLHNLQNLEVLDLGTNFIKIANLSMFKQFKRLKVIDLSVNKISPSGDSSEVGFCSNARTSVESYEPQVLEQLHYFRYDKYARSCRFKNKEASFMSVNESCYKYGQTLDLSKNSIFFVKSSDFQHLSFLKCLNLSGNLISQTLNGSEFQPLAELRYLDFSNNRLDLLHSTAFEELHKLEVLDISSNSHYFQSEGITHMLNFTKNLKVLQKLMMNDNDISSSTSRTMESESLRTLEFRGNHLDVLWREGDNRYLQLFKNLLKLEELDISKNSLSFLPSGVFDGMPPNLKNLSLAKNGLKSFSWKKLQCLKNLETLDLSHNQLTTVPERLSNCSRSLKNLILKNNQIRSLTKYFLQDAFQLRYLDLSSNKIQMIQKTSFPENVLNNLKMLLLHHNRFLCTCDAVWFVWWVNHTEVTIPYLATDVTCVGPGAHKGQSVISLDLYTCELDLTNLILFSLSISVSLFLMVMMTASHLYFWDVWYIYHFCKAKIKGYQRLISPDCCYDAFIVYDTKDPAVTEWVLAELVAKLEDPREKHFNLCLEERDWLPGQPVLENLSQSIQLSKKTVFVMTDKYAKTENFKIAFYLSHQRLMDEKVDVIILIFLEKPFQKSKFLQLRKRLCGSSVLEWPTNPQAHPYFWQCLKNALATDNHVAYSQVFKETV
How it was run: (§1)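 HEK-Blue cells overexpressing human TLR7, TLR8 or TLR9 with an NF-κB/AP-1-driven SEAP reporter were pre-treated 30 min at room temperature with compound (0.05 nM to 50 μM), then stimulated with gardiquimod 7.5 μM (TLR7), R848 15.9 μM (TLR8) or ODN2006 5 nM (TLR9). SEAP measured after 22 h at 37° C; inhibition normalized between agonist-plus-DMSO and reference-inhibitor wells.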

human TLR9 = target: T2, human TLR9 (Homo sapiens, UniProt Q9NR96); assay: TLR9 inhibition reporter assay (HEK-Blue SEAP); conditions: HEK-Blue cells overexpressing human TLR9, stimulated with ODN2006 5 nM, 22 hour incubation
T2 construct: host or cells: HEK-Blue cells
T2 sequence (Q9NR96 26-1032): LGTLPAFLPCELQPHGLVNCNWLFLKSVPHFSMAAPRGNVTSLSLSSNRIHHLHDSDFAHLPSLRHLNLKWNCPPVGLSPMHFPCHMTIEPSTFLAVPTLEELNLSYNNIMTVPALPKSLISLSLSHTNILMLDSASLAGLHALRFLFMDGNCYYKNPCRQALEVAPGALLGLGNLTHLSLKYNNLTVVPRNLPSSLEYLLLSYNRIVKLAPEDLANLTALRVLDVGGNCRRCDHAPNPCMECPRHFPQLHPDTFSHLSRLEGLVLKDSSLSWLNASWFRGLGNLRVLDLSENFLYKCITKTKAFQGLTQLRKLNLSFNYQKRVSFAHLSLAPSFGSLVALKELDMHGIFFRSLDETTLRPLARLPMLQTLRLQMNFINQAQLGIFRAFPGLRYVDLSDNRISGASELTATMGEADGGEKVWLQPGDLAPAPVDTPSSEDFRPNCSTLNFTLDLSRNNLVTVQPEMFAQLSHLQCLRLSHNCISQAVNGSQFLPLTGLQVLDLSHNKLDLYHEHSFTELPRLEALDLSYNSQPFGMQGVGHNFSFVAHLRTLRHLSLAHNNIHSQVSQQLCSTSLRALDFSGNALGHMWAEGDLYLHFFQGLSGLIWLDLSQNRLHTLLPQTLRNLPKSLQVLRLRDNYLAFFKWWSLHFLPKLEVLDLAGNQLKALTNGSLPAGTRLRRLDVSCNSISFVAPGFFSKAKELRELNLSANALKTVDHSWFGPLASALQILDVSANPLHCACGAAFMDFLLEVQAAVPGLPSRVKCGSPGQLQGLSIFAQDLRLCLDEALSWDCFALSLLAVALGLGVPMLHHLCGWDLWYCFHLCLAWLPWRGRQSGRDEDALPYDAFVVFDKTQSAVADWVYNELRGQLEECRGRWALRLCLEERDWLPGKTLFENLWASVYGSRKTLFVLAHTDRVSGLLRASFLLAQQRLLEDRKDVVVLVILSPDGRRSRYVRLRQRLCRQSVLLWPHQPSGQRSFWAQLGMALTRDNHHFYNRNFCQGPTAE
How it was run: as §1

human TLR8 = target: T3, human TLR8 (Homo sapiens, UniProt Q9NR97); assay: TLR8 inhibition reporter assay (HEK-Blue SEAP); conditions: HEK-Blue cells overexpressing human TLR8, stimulated with R848 15.9 μM, 22 hour incubation
T3 construct: host or cells: HEK-Blue cells
T3 sequence (Q9NR97 27-1041): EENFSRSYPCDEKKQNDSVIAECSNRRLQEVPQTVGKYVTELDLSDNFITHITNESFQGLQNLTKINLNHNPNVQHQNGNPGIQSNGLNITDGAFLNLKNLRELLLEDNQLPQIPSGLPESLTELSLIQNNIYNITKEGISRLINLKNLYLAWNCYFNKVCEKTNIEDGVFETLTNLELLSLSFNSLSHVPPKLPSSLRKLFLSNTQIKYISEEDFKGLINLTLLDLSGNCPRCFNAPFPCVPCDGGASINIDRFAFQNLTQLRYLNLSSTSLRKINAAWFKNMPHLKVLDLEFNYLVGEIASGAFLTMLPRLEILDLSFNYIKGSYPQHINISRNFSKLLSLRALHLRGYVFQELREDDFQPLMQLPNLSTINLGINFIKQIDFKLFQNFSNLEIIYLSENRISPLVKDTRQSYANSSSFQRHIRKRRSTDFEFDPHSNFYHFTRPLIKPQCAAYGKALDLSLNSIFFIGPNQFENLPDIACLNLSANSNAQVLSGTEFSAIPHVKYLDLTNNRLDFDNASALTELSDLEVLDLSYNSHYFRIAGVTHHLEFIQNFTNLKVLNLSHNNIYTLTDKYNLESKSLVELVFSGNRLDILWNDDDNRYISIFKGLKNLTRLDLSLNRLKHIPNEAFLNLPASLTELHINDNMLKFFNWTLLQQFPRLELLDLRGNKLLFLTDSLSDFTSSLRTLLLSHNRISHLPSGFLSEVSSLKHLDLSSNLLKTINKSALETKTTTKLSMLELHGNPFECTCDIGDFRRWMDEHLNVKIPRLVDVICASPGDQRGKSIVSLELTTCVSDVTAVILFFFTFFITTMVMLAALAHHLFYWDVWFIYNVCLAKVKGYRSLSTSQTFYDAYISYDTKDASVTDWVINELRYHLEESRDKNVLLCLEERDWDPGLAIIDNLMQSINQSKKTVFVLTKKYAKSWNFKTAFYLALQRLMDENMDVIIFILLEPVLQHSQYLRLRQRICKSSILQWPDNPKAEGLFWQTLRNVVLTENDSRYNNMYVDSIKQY
How it was run: as §1

Structure (SMILES)	pIC50 (human TLR7)	pIC50 (human TLR9)	pIC50 (human TLR8)
Cc1cc(-c2cc3[nH]nc(C4CCC(N5CCC(S(C)(=O)=O)C5)CC4)c3cc2C(C)C)cn2ncnc12 (single isomer, unassigned) [Example 212, 6-(5-isopropyl-3-(4-(3-(methylsulfonyl)pyrrolidin-1-yl)cyclohexyl)-1H-indazol-6-yl)-8-methyl-[1,2,4]triazolo[1,5-a]pyridine]	8.09	4.62	9.44
Cc1cc2c(C3CCNCC3)c[nH]c2cc1-c1cc(C)c2ncnn2c1 [Example 1, 8-methyl-6-(5-methyl-3-(piperidin-4-yl)-1H-indol-6-yl)-[1,2,4]triazolo[1,5-a]pyridine]	8.39	6.18	8.41
Cc1cc(-c2cc(C)c3ncnn3c2)cc2[nH]cc(C3CCNCC3)c12 [Example 2, 8-methyl-6-(4-methyl-3-(piperidin-4-yl)-1H-indol-6-yl)-[1,2,4]triazolo[1,5-a]pyridine]	9.05	5.98	7.70
Cc1cc(-c2cc(C)c3ncnn3c2)cc2[nH]nc(C3CCCN(C(=O)CN(C)C)C3)c12 (stereo not drawn) [Example 5, 2-(dimethylamino)-1-(3-(4-methyl-6-(8-methyl-[1,2,4]triazolo[1,5-a]pyridin-6-yl)-1H-indazol-3-yl)piperidin-1-yl)ethan-1-one]	8.31	5.81	7.87
CCc1cc(-c2cc(C)c3ncnn3c2)cc2[nH]nc(C3CCN(CC(=O)N(C)C)CC3)c12 [Example 8, 2-(4-(4-ethyl-6-(8-methyl-[1,2,4]triazolo[1,5-a]pyridin-6-yl)-1H-indazol-3-yl)piperidin-1-yl)-N,N-dimethylacetamide]	8.40	5.22	8.35
CCCN1CCC(c2n[nH]c3cc(-c4cc(C)c5ncnn5c4)c(C(C)C)cc23)CC1 [Example 9, 6-(5-isopropyl-3-(1-propylpiperidin-4-yl)-1H-indazol-6-yl)-8-methyl-[1,2,4]triazolo[1,5-a] pyridine]	9.30	5.21	10.00
Cc1cc2c(CC3CCNCC3)n[nH]c2cc1-c1cc(C)c2ncnn2c1 [Example 10, 8-methyl-6-(5-methyl-3-(piperidin-4-ylmethyl)-1H-indazol-6-yl)-[1,2,4]triazolo[1,5-a]pyridine]	7.16	6.00	8.42
COc1cc(-c2ccc3c(C4CCNCC4)c[nH]c3c2)cn2ncnc12 [Example 11, 8-methoxy-6-(3-(piperidin-4-yl)-1H-indol-6-yl)-[1,2,4]triazolo[1,5-a]pyridine]	7.19	6.44	6.61
Cc1cc(-c2ccc3c(C4CCNCC4)c[nH]c3c2)cn2ncnc12 [Example 12, 8-methyl-6-(3-(piperidin-4-yl)-1H-indol-6-yl)-[1,2,4]triazolo[1,5-a]pyridine]	7.77	6.72	7.51
Cc1cc(-c2ccc3c(CCNC4CCNCC4)c[nH]c3c2)cn2ncnc12 [Example 13, N-(2-(6-(8-methyl-[1,2,4]triazolo[1,5-a]pyridin-6-yl)-1H-indol-3-yl)ethyl)piperidin-4-amine]	5.77	6.22	6.57
Cc1cc(-c2cc(C)c3ncnn3c2)cc2[nH]cc(C3CCNCC3)c12 [Example 16, 8-methyl-6-(4-methyl-3-(piperidin-4-yl)-1H-indol-6-yl)-[1,2,4]triazolo[1,5-a]pyridine]	8.48	5.85	7.45
Cc1cc(-c2ccc3c(C4CCNCC4)n[nH]c3c2)cn2ncnc12 [Example 17, 8-methyl-6-(3-(piperidin-4-yl)-1H-indazol-6-yl)-[1,2,4]triazolo[1,5-a]pyridine]	6.41	5.50	6.48
Cc1cc2c(C3CCNCC3)n[nH]c2cc1-c1cc(C)c2ncnn2c1 [Example 18, 8-methyl-6-(5-methyl-3-(piperidin-4-yl)-1H-indazol-6-yl)-[1,2,4]triazolo[1,5-a]pyridine]	7.89	5.82	8.48
